Columns and labels:
[1] = test system: Chk1 phosphorylation in HT29 cells; test: Western blot of Chk1 phosphorylation at serines 317 and 345; type: cell-based, human; conditions: 20 μM for two h, then 22 h washout
Excerpt: To determine whether an agent is a Chk1 activator, the phosphorylation state of Chk1 can be measured using phospho-specific antibodies to specific phosphorylation sites on Chk1. […] Liu et al., Genes Dev. 14:1448-59, 2000; Zhao et al., Mol. Cell. Biol. 21:4129-39, 2001; Lopez-Girona et al., Proc. Natl. Acad. Sci. U.S.A. 98:11289-94, 2001; Guo et al., Genes Dev. 14:2745-56, 2000; Gatei et al., J. Biol. Chem. 278:14806-11, 2003; Ng et al., J Biol. Chem. 279(10):8808-19, 2004; Wang et al., Natl Acad Sci USA. 100(26):15387-92, 2003; Stojic et al., Genes Dev. 18(11):1331-44, 2004. These serine sites are phosphorylated by upstream checkpoint kinases, Atm and Atr. Liu et al., Genes Dev. 14:1448-59, 2000; Zhao et al. Mol. Cell. Biol., 21:4129-39, 2001).
The phosphorylation of these sites in response to a candidate Chk1 activator can be monitored by Western blot or immunohistochemistry of tumor cells. […] HT29 cells are treated with 20 μM gemcitabine for two h. The gemcitabine is washed out of the cell growth media and cells are incubated for 22 additional h. Protein lysates are prepared and separated by an SDS-polyacrylamide gel electrophoresis. Proteins are transferred to PVDF membranes and probed with antisera (Cell Signalling) specific for either phosphorylated serine 317 or 345 (Cell Signalling).

[2] = test system: Chk1 serine 296 phosphorylation in HT29 cells; test: Western blot of Chk1 phosphorylation at serine 296; type: cell-based, human
Experimental: Phosphorylation at this site is not inhibited by wortmannin, which inhibits Atm and Atr. Therefore, the phosphorylation of serine 296 is distinct from phosphorylation at serines 317 and 345. […] Therefore, this approach can be used to monitor Chk1 activity in tumors in response to Chk1 activators. Further, this approach can be used to measure inhibition of Chk1 activation by Chk1 inhibitors.
Thus, HT 29 cells are treated with 20 μM gemcitabine for two h. The gemcitabine is washed out of the cell growth media and cells are incubated for 22 additional h. Protein lysates are prepared and separated by an SDS-polyacrylamide gel electrophoresis. Proteins are transferred to polyvinylidene fluoride (PVDF) membranes and probed with antisera (Cell Signalling) specific for phosphorylated serine 296 (Cell Signalling). […] Further, HT29 cells treated with selective Chk1 inhibitors for 15 min show no serine 296 phosphorylation.

[3] = test system: colon tumor cell line xenograft tumors; test: Animal tumor models (xenograft); type: in vivo, Balb/c (nu/nu) mice; conditions: 160 mg/kg i.p., xenograft mice
Excerpt: To test the ability of the Chk1 inhibitors of the invention to enhance the killing of tumors by DNA damaging agents in mice, xenograft tumor models using colon tumor cell lines are established. 5-fluorouracil (5-FU) or gemcitabine can be used as DNA damaging agents; HT29 and Colo205 (human colon carcinoma) and H460 and Calu-6 (nonsmall cell carcinoma) cells can be used to propagate xenograft tumors in 6-8 week old female […] Balb/c (nu/nu) mice. Mice are maintained in a laminar airflow cabinet under pathogen-free conditions and fed sterile food and water ad libitum. Cell lines are grown to subconfluence in RPMI 1640 media supplemented with 10% FBS, 100 U/mL penicillin, 100 μg/mL streptomycin, and 1.5 mM L-glutamine in a 5% CO2 humidified environment. Single cell suspensions are prepared in CMF-PBS, and cell concentration adjusted to 1×10^8 cells/mL. Mice are inoculated subcutaneously (s.c.) on the right flank or right leg with a total of 1×10^7 cells (100 μL). Mice are randomized (5-15 mice/group) into four treatment groups and used when tumors reach a volume of […] (usually 7-11 days post-inoculation). Tumors are measured with vernier calipers and tumor volumes are estimated using the empirically derived formula: tumor volume (cm^3)=tumor length (cm)×tumor width (cm)×tumor depth (cm)/3.3. […] Tumor size is monitored every other day for the duration of the experiment.

Row | SMILES | phosphorylation of Chk1 serines 317 and 345 [1] | phosphorylation of Chk1 serine 296 ([2]; HT29 cells, 20 μM for two h, then 22 h washout) | tumor growth [3] | inhibition of Chk1 serine 296 phosphorylation ([2]; gemcitabine-stimulated tumor cells)
1 | Nc1ccn([C@@H]2O[C@H](CO)[C@@H](O)C2(F)F)c(=O)n1 [gemcitabine, 2′,2′ difluoro-2′-deoxycytidine] | results in the phosphorylation of both serines 317 and 345 | results in the phosphorylation of serine 296 | delay in tumor growth is observed | 
2 | COC[C@H]1OC(=O)c2coc3c2[C@@]1(C)C1=C(C3=O)[C@@H]2CCC(=O)[C@@]2(C)C[C@H]1OC(C)=O [wortmannin] |  |  |  | not inhibited
